{
  "source": "patent US20260014129A1",
  "about": "“MITOCHONDRIAL PYRUVATE METABOLISM INHIBITORS FOR TREATING CHRONIC MYELOID LEUKEMIA” (The University Court of the University of Glasgow, priority 2022, published 2026)",
  "tested_on": "CML CD34+ cells",
  "experiment": "RNA-seq differential gene expression and GSEA of imatinib-treated CML CD34+ cells",
  "format": "cell-based, human",
  "details": "imatinib 2 μM, 48 hours",
  "description": "RNA was extracted from 200,000 CML CD34+ cells using an RNA easy mini kit (Qiagen) according to the manufacturer's instructions.\nLibraries were prepared using the Illumina TruSeq Stranded mRNA LT Kit (Illumina) and run on the Illumina Next Seq 500 using the High Output 75 cycles kit (2×36 cycles, paired end reads, single index; Illumina). FastQ files were generated using Illumina's bcl2fastq (v. 2.20.0.422).\nQC, alignment, and parsing of files into count matrices was performed in command line, with subsequent differential gene expression (DGE) analysis performed in R (1.2.1335). Adapter trimming was performed using Scythe (version 0.981), and Sickle (version 0.940), was used to trim bases with quality scores of less than 20. Prior to and after this pre-processing fastqc (version 0.11.2) was run to ascertain sequence quality, alongside the efficacy of the pre-processing steps. Trimmed reads were indexed and aligned using Hisat2 (version 2.1.0). Hisat2 indexes (GRCh38 genome_tran) were obtained from the John Hopkins Center for Computational Biology, 2020. Samtools (version 0.1.19044428cd) view was used to convert the resulting .sam to .bam files, whilst samtools sort was used to sort the .bam files. Assembly was achieved through the use of stringtie (John Hopkins Center for Computational Biology, 2020), with output .gtf files converted to count matrices using the python script prepDE.py (stringtie version 1.3.3b.Linux_x86_64). Reads were assembled using an annotated reference human genome (GRCh38.p13), obtained from GENCODE (GENECODE, 2020). DESeq2 (version 1.26.0) was used to generate results sets from the gene and transcript count matrices. G genes with read counts too low to allow for the calculation of p and adjusted p-values (padj: Benjamini-Hochberg) were removed from the data sets leaving gene and transcript counts of sizes 16,069 and 45,218 respectively.\nGSEA (version 4.1) was conducted on pre-ranked lists (ranked by pi score calculated by multiplying LOG fold change by −LOG (corrected p-value)).",
  "data": [
    {"smiles": "Cc1ccc(NC(=O)c2ccc(CN3CCN(C)CC3)cc2)cc1Nc1nccc(-c2cccnc2)n1", "note": "[imatinib]", "values": [
      {"measurement": "most downregulated pathways in GSEA", "setting": "Hallmark gene sets", "value": "oxidative phosphorylation, glycolysis, and fatty acid oxidation"},
      {"measurement": "PC transcript level", "setting": "paired transcriptomic data", "value": "no change"},
      {"measurement": "PDH transcript level", "setting": "paired transcriptomic data", "value": "downregulation"}
    ]}
  ]
}
